Measurements published in PMC7180948, “New Insights into 4-Anilinoquinazolines as Inhibitors of Cardiac Troponin I–Interacting Kinase (TNNi3K)” (Molecules, 2020).

Experiments:
Assay in all cases: biochemical
Design in all cases: KINOMEscan competition binding panel (Eurofins DiscoverX), single concentration, % inhibition
Settings in all cases: read-out: 7 at 1 µM % inhibition
MAP3K3 = MAP3K3 (Homo sapiens, UniProt Q99759)
Procedure, shortened: (§1)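 KINOMEscan binding panel of >400 kinases, run by Eurofins DiscoverX, with compounds tested at a single concentration of 1 µM.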

KIT = KIT (Homo sapiens, UniProt P10721)
Procedure, shortened: as §1

EPHA7 = EPHA7 (Homo sapiens, UniProt Q15375)
Procedure, shortened: as §1

QSK = molecular target: T1, QSK (Homo sapiens, UniProt Q9Y2K2)
T1 construct: gene SIK3
Procedure, shortened: as §1

DRAK1 = molecular target: T2, DRAK1 (Homo sapiens, UniProt Q9UEE5)
T2 construct: gene STK17A
Procedure, shortened: as §1

CSNK1E = CSNK1E (Homo sapiens, UniProt P49674)
Procedure, shortened: as §1

[1] = molecular target: T3, JAK1(JH1domain-catalytic) (Homo sapiens, UniProt P23458)
T3 construct: JH1domain-catalytic
Procedure, shortened: as §1

NIK = molecular target: T4, NIK (Homo sapiens, UniProt Q99558)
T4 construct: gene MAP3K14
Procedure, shortened: as §1

PIP5K2C = molecular target: T5, PIP5K2C (Homo sapiens, UniProt Q8TBX8)
T5 construct: gene PIP4K2C
Procedure, shortened: as §1

EGFR = EGFR (Homo sapiens, UniProt P00533)
Procedure, shortened: as §1

HIPK3 = HIPK3 (Homo sapiens, UniProt Q9H422)
Procedure, shortened: as §1

HIPK2 = HIPK2 (Homo sapiens, UniProt Q9H2X6)
Procedure, shortened: as §1

LIMK2 = LIMK2 (Homo sapiens, UniProt P53671)
Procedure, shortened: as §1

SRPK3 = SRPK3 (Homo sapiens, UniProt Q9UPE1)
Procedure, shortened: as §1

[2] = molecular target: T6, RSK2(Kin.Dom.1-N-terminal) (Homo sapiens, UniProt P51812)
T6 construct: gene RPS6KA3; Kin.Dom.1-N-terminal
Procedure, shortened: as §1

BRAF = BRAF (Homo sapiens, UniProt P15056)
Procedure, shortened: as §1

ROCK1 = ROCK1 (Homo sapiens, UniProt Q13464)
Procedure, shortened: as §1

MARK4 = MARK4 (Homo sapiens, UniProt Q96L34)
Procedure, shortened: as §1

DRAK2 = molecular target: T7, DRAK2 (Homo sapiens, UniProt O94768)
T7 construct: gene STK17B
Procedure, shortened: as §1

NEK10 = NEK10 (Homo sapiens, UniProt Q6ZWH5)
Procedure, shortened: as §1

EGFR(T790M) = EGFR(T790M) (Homo sapiens, UniProt P00533, T790M)
Procedure, shortened: as §1

CLK4 = CLK4 (Homo sapiens, UniProt Q9HAZ1)
Procedure, shortened: as §1

LZK = molecular target: T8, LZK (Homo sapiens, UniProt O43283)
T8 construct: gene MAP3K13
Procedure, shortened: as §1

PLK3 = PLK3 (Homo sapiens, UniProt Q9H4B4)
Procedure, shortened: as §1

T3 sequence (P23458 whole entry): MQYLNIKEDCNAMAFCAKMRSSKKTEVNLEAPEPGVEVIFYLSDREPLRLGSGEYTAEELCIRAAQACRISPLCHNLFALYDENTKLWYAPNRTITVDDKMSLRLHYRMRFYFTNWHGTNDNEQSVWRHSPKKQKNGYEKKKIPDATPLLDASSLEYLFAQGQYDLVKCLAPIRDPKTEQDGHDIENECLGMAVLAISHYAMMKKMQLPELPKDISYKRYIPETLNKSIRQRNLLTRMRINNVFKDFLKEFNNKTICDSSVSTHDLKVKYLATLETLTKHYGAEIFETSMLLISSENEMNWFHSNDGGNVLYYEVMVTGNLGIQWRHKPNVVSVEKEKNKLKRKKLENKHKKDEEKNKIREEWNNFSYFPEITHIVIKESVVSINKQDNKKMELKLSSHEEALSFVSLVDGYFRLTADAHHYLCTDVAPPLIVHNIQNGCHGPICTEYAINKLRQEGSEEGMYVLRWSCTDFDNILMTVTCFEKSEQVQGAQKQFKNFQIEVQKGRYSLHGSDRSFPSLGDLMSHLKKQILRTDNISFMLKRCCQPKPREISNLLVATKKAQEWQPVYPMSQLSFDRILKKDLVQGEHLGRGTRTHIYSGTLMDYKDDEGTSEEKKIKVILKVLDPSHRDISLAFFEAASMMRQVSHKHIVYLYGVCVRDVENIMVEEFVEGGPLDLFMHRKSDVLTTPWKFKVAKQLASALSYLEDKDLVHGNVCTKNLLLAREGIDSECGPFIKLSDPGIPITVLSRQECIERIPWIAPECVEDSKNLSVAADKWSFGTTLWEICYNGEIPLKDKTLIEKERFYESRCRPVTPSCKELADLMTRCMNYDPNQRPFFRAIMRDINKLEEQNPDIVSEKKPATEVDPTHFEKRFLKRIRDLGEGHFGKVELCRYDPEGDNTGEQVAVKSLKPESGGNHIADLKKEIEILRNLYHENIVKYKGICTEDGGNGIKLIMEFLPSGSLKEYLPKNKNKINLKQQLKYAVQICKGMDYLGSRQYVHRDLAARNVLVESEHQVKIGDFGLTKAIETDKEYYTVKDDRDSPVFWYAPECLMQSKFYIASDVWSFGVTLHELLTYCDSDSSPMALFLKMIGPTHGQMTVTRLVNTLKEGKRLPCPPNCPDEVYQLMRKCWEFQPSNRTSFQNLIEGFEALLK
T1 sequence (Q9Y2K2 whole entry): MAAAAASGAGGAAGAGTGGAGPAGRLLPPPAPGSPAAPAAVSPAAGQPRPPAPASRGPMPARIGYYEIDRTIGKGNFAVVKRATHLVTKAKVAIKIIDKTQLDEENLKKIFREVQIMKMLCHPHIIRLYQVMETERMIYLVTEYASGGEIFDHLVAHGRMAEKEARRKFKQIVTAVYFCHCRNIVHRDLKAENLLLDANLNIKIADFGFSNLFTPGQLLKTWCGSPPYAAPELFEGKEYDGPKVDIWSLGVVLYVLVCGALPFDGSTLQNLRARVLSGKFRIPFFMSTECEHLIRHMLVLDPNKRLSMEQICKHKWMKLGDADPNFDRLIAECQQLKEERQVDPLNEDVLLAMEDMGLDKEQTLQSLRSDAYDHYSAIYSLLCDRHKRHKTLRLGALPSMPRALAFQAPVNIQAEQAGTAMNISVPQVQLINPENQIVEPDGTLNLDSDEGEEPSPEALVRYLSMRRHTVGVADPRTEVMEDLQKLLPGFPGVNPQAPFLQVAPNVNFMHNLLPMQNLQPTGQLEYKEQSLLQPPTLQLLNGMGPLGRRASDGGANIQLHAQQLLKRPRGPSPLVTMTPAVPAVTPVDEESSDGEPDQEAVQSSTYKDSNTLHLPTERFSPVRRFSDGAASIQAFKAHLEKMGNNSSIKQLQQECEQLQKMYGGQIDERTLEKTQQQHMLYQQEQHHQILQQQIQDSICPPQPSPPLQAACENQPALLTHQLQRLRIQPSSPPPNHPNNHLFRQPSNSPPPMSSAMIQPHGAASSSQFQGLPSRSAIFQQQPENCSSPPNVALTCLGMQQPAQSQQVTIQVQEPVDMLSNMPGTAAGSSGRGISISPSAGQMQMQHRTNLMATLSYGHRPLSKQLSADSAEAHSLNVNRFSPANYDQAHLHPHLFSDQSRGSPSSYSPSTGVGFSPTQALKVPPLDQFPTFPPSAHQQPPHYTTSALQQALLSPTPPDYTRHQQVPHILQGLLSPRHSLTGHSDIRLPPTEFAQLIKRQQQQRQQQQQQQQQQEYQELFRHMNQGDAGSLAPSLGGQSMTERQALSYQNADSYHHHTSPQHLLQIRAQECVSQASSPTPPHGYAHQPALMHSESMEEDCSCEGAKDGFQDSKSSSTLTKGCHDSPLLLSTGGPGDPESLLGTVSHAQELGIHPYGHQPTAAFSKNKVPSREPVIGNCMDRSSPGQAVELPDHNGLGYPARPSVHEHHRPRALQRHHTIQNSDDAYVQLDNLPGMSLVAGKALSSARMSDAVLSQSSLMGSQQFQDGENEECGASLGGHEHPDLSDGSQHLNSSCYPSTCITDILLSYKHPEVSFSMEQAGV
T2 sequence (Q9UEE5 whole entry): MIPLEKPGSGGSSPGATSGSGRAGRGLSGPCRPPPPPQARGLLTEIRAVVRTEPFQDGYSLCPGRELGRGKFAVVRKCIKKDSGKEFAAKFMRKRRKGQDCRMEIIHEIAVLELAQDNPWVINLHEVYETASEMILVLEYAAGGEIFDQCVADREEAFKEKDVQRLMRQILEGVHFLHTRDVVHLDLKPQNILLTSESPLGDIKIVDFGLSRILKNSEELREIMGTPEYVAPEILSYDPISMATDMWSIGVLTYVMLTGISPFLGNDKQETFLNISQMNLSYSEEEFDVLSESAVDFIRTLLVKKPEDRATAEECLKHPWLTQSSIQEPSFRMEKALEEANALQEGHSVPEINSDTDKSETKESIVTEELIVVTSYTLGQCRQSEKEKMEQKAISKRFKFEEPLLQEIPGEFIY
T4 sequence (Q99558 whole entry): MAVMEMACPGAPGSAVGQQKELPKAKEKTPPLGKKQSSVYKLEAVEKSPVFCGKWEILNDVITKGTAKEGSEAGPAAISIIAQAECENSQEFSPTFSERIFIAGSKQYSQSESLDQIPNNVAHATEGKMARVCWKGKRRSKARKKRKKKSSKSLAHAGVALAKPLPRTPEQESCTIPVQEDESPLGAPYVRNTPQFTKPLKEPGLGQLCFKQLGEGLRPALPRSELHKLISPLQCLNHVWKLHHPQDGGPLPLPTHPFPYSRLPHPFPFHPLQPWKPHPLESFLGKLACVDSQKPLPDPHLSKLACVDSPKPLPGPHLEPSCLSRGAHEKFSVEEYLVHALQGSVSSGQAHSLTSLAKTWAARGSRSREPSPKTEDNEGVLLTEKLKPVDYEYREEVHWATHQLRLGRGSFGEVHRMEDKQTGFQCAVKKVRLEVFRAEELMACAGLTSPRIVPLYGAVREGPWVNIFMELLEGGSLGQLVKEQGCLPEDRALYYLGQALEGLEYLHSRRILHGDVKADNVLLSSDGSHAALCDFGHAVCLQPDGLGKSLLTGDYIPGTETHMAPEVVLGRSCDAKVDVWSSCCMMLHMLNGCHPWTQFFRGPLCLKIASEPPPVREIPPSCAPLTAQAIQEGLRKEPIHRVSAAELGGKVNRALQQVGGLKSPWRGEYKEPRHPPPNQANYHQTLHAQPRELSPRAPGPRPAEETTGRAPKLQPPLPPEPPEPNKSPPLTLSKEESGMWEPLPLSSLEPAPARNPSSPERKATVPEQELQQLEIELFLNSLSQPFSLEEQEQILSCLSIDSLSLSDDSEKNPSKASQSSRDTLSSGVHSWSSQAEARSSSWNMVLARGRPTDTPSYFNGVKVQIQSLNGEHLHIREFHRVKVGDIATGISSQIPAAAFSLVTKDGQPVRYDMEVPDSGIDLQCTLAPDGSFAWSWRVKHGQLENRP
Sequence of LIMK2 (P53671 whole entry): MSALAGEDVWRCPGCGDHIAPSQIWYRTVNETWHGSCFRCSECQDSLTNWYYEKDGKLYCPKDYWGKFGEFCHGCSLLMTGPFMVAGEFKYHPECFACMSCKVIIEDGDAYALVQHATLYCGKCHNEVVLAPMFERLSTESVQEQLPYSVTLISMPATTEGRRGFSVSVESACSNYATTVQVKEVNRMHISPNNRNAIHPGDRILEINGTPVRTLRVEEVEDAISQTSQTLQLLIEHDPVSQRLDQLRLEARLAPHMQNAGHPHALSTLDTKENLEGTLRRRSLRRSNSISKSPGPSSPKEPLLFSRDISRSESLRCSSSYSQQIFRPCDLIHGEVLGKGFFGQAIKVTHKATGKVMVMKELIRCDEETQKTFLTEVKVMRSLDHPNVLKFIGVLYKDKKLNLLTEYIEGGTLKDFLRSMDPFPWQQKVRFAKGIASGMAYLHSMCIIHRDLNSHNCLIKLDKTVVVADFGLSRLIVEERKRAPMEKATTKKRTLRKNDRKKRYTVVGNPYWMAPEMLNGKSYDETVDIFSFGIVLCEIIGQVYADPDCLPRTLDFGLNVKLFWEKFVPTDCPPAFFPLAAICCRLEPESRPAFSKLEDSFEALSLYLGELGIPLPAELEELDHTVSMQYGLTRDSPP
Sequence of CSNK1E (P49674 whole entry): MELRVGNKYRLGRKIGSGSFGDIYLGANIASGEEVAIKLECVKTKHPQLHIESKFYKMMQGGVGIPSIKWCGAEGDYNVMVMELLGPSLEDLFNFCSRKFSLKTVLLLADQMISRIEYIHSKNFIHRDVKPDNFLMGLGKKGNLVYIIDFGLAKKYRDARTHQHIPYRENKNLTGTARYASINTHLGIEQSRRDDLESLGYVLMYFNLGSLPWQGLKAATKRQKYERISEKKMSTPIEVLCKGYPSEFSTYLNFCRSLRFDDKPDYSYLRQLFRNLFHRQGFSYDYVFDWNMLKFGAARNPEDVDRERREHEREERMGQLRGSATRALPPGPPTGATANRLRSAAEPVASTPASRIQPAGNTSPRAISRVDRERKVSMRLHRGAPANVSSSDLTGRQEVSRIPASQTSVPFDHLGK

**Q.** How did the inhibition at 1 µM (MAP3K3) turn out when `CNS(=O)(=O)c1ccc(N(C)C)c(Nc2ncnc3cc(OC)c(OC)cc23)c1` [compound 7, 3-((6,7-dimethoxyquinazolin-4-yl)amino)-4-(dimethylamino)-N-methylbenzenesulfonamide] was run?
**A.** 30%

**Q.** And the inhibition at 1 µM (KIT)?
**A.** 13%

**Q.** And the inhibition at 1 µM (EPHA7)?
**A.** 0%

**Q.** What about the inhibition at 1 µM (QSK) of the same molecule?
**A.** 52%

**Q.** What about the inhibition at 1 µM (DRAK1) of the same molecule?
**A.** 0%

**Q.** What about the inhibition at 1 µM (CSNK1E) of the same molecule?
**A.** 0%

**Q.** And the inhibition at 1 µM [1]?
**A.** 0%

**Q.** And the inhibition at 1 µM (NIK)?
**A.** 0%

**Q.** What about the inhibition at 1 µM (PIP5K2C) of the same molecule?
**A.** 0%

**Q.** And the inhibition at 1 µM (EGFR)?
**A.** 0%

**Q.** And the inhibition at 1 µM (HIPK3)?
**A.** 0%

**Q.** And the inhibition at 1 µM (HIPK2)?
**A.** 0%

**Q.** And the inhibition at 1 µM (LIMK2)?
**A.** 0%

**Q.** And the inhibition at 1 µM (SRPK3)?
**A.** 0%

**Q.** And the inhibition at 1 µM [2]?
**A.** 13%

**Q.** And the inhibition at 1 µM (BRAF)?
**A.** 84%

**Q.** And the inhibition at 1 µM (ROCK1)?
**A.** 1%

**Q.** What about the inhibition at 1 µM (MARK4) of the same molecule?
**A.** 2%

**Q.** What about the inhibition at 1 µM (DRAK2) of the same molecule?
**A.** 0%

**Q.** And the inhibition at 1 µM (NEK10)?
**A.** 0%

**Q.** What about the inhibition at 1 µM (EGFR(T790M)) of the same molecule?
**A.** 25%

**Q.** And the inhibition at 1 µM (CLK4)?
**A.** 13%

**Q.** What about the inhibition at 1 µM (LZK) of the same molecule?
**A.** 23%

**Q.** And the inhibition at 1 µM (PLK3)?
**A.** 0%
